Measurements published in patent US10898548B2, “Modulators of protein tyrosine phosphatase and uses thereof” (LEUVAS THERAPEUTICS, priority 2015, dated 2021).
Where two headings read alike, the source gives them in different places. Marks after values point to notes of the source that are not given here.

Columns and labels:
DBTRG GBM cells = experiment: MTT survival assay, DBTRG GBM cells; type: cell-based, human
Experimental: The DBTRG-O5MG (Denver Brain Tumor Research Group 05) cell line was established from tissue from a patient with glioblastoma multiforme who had been treated with local brain irradiation and multi drug chemotherapy (Kruse C A, et al. 1992 In vitro Cell Dev Biol, 28A(9-10):609-14). U87 is a commonly studied and thoroughly characterized grade IV glioma cell line derived from malignant glioma (Clark M J, et al, 2010 Plos Genet. 6(1):e1000832.). T98G is a glioblastoma multiforme cell line extracted from a person (Stein G H, 1979, J. Cell Physiol, 99(1):43-54). Proliferation and survival were assessed following TAT-ICD or control peptide (Table 29) or the P1-WD or control peptide treatment using the MTT assay as described above. Data are relative absorption; mean and standard deviation.

[1] = tested on: normal primary cortical murine neurons; experiment: MTT assay, normal primary cortical neurons; type: cell-based, mouse
Experimental: (§1) Briefly, U251 GBM cells, normal primary cortical murine neurons and a mixed culture of murine microglia and astrocytes were treated for 24, 48 and 72 hours with no treatment (control), delivery peptide (P1 or TAT) or increasing concentrations of P1-WD or TAT-ICD. Cell viability and survival was measured using the MTT assay, a colorimetric assay for assessing cell metabolic activity set up under conditions where the absorption reflects the number of viable cells present (Table 21 and 22) and expressed as relative absorption at 570 nm. Early apoptosis was measured using VYBRANT DyeCycle Violet stain (Molecular Probes), a DNA-selective, cell membrane-permeant dye that can distinguish the compacted state of the nuclear chromatin in apoptotic cells as determined by flow cytometry and presented as the percent of cells that are apoptotic (Table 23 and 24). The actual number of cells following treatment with TAT-ICD or TAT alone (Table 25) was determined using flow cytometry compared to an input of 5,000 cells at time zero. To confirm apoptosis the TUNEL labeling assay, which detects DNA strand breaks in apoptotic cells by fluorescence microscopy, was also used to examine U251 cells treated with the PTPRG WD. Briefly, the assay used an optimized terminal transferase ([…]) to label 3′OH ends in genomic DNA with TMR-dUTP, thus allowing the measurement and quantification of cell death by apoptosis. U251 cells were pretreated for 1, 3 and 6 hours with 50 μM P1-WD. Then cells were fixed and permeabilized, incubated with TUNEL reaction mixture for 1 h at RT, and then stained with DAPI (for nuclei detection) and with Alexa670-Phalloidin (to detect actin in cell membranes). After the staining steps, cells were visualized with a confocal microscope.
In striking contrast, treatment of normal primary cortical neurons isolated from mouse pups treated with TAT alone or TAT-ICD for 24-72 hours (Table 26) are mean and sd of absorption using the MTT assay as described above.

U251 GBM cells = experiment: cell number by flow cytometry, U251 GBM cells; type: cell-based; conditions: input 5000
Experimental: as §1, with “Cell” for “Briefly, U251 GBM cells, normal primary cortical murine neurons and a mixed culture of murine microglia and astrocytes were treated for 24, 48 and 72 hours with no treatment (control), delivery peptide (P1 or TAT) or increasing concentrations of P1-WD or TAT-ICD. Cell”

[2] = tested on: Hbb^th3/+ mice (β-thalassemia model); experiment: circulating erythroblasts; type: in vivo, mouse; conditions: TAT-ICD 5 mg/kg i.p once every other day for 3 weeks
[3] = tested on: Hbb^th3/+ mice (β-thalassemia model); experiment: reactive oxygen species (ROS) levels, CM-H2DCFDA; type: in vivo, mouse; conditions: for mean ROS level in red cells: TAT-ICD 5 mg/kg i.p once every other day for 3 weeks
Experimental: Reactive oxygen species (ROS) are known to be increased in red blood cells in β-thalassemia and are thought to be important in the pathophysiology of the disease, leading to cumulative cell damage. The reactive oxygen species (ROS) levels from erythroid precursor populations was assessed using the General Oxidative Stress Indicator CM-H2DCFDA (Life Technologies, Carlsbad, Calif.) as described (Matte A. et al 2015 Antioxid. Redox Signal 23(16):1284-1297). […] Data are the mean ROS level.

[4] = tested on: Hbb^th3/+ mice (β-thalassemia model)
[5] = 0.25 uM, 24 hours, Control 1116
[6] = 0.25 uM, 48 hours, Control 1022

Row | Substance | MTT relative absorption (DBTRG GBM cells; 0.3 μM, 24 hours, Control 941) | MTT relative absorption (DBTRG GBM cells; 0.3 μM, 48 hours, Control 1274) | MTT relative absorption (DBTRG GBM cells; 0.3 μM, 72 hours, Control 1667) | MTT relative absorption (DBTRG GBM cells; 0.5 μM, 24 hours, Control 941) | MTT relative absorption (DBTRG GBM cells; 0.5 μM, 48 hours, Control 1274) | MTT relative absorption (DBTRG GBM cells; 0.5 μM, 72 hours, Control 1667) | MTT relative absorption (DBTRG GBM cells; 1.0 μM, 24 hours, Control 941) | MTT relative absorption (DBTRG GBM cells; 1.0 μM, 48 hours, Control 1274) | MTT relative absorption (DBTRG GBM cells; 1.0 μM, 72 hours, Control 1667) | absorbance in the MTT assay ([1]; 0.1 uM, 24 hours, Control 1116) | absorbance in the MTT assay ([1]; 0.1 uM, 48 hours, Control 1022) | absorbance in the MTT assay ([1]; 0.1 uM, 72 hours, Control 994) | absorbance in the MTT assay [1, 5] | absorbance in the MTT assay [1, 6] | absorbance in the MTT assay ([1]; 0.25 uM, 72 hours, Control 994) | absorbance in the MTT assay ([1]; 0.5 uM, 24 hours, Control 1116) | absorbance in the MTT assay ([1]; 0.5 uM, 48 hours, Control 1022) | absorbance in the MTT assay ([1]; 0.5 uM, 72 hours, Control 994) | further results
1 | TAT (GRKKRRQRRRPPQ; listed as Homo sapiens) [reference compound] | 711 | 1031 | 1583 | 826 | 1061 | 1591 | 792 | 1005 | 1275 | 1150 | 1151 | 1151 | 908 | 955 | 957 | 1184 | 1148 | 1224 | number of cells (U251 GBM cells; TAT 50 μM, 6 hours, Control 5000): 4700 cells per standard volume of medium; number of cells (U251 GBM cells; TAT 50 μM, 9 hours, Control 10000): 7000 cells per standard volume of medium; number of cells (U251 GBM cells; TAT 50 μM, 24 hours, Control 10000): 11385 cells per standard volume of medium
2 | TAT-ICD: fusion recombinant protein SEQ ID 5: PTPRG intracellular domain aa 797-1445 fused to 13 aa TAT sequence | 772 | 770 | 1243 | 773 | 623 | 1022 | 669 | 577 | 712 | 1115 | 989 | 1074 | 928 | 923 | 1204 | 1164 | 1109 | 1376 | circulating erythroblasts ([2]; Hbb^th3/+ mice, Vehicle-treated 32.0): 10.8*; circulating erythroblasts ([2]; Wild-type mice, Vehicle-treated 0): 0; ROS levels in bone marrow erythroid precursor populations I-IV ([3]; Hbb mice, all four populations): decreased; mean ROS level in red cells ([3]; Hbb^th3/+ mice, Untreated 13.75): 9.73*; mean ROS level in red cells ([3]; Wild-type mice, Untreated 3.32): 2.79; red cell morphology ([4]; Hbb^th3/+ mice): ameliorated red cell morphological abnormalities; red cell morphology ([4]; mouse, in vivo): without any changes; number of cells (U251 GBM cells; TAT-ICD 0.5 μM, 6 hours, Control 5000): 4676 cells per standard volume of medium; number of cells (U251 GBM cells; TAT-ICD 0.5 μM, 9 hours, Control 10000): 5400 cells per standard volume of medium; number of cells (U251 GBM cells; TAT-ICD 0.5 μM, 24 hours, Control 10000): 6094 cells per standard volume of medium; number of cells (U251 GBM cells; TAT-ICD 1 μM, 6 hours, Control 5000): 2688 cells per standard volume of medium; number of cells (U251 GBM cells; TAT-ICD 1 μM, 9 hours, Control 10000): 5434 cells per standard volume of medium; number of cells (U251 GBM cells; TAT-ICD 1 μM, 24 hours, Control 10000): 5300 cells per standard volume of medium; number of cells (U251 GBM cells; TAT-ICD 2 μM, 6 hours, Control 5000): 3943 cells per standard volume of medium; number of cells (U251 GBM cells; TAT-ICD 2 μM, 9 hours, Control 10000): 3016 cells per standard volume of medium; number of cells (U251 GBM cells; TAT-ICD 2 μM, 24 hours, Control 10000): 4500 cells per standard volume of medium
